Test results as given in patent US9226965B2, “Method and composition for treating heart failure” (U.S. DEPARTMENT OF VETERANS AFFAIRS, priority 2007, dated 2016).
Entries after “also recorded” stand apart in the source; their conditions may differ.

Experiments:
Type in all cases: in vivo, rat
[1] = test system: spontaneously hypertensive rats (SHR) with heart failure; assay: Body weight, cardiac chamber weights and hypertrophy indices in SHR with heart failure after 30 days of treatment
From the text: Adult male spontaneously hypertensive rats (SHR) rats were purchased as retired breeders from Taconic Inc and boarded in the animal facility at the Boston VA Healthcare system until the time of study (18 to 24 months of age). Each rat was caged alone and allowed free access to chow and water. Animals were monitored several times per week for evidence of tachypnea and labored respiration; when these clinical findings were clearly in evidence, animals were either killed and studied or treated with captopril and/or phenylbutyrate. Groups of animals were treated by adding the angiotensin converting enzyme inhibitor captopril to the drinking water (2 g/L to drinking water) and/or phenylbutyrate to the drinking water (6 g/L to the drinking water; sodium 4-phenylbutyrate (Triple Crown America, Inc.)) when clinical evidence of impaired cardiac function was detected. Treatment was continued for 30 days, the animals closely monitored and then studied. A control group of age-matched, untreated SHR rats was used for comparison. At autopsy, animals were examined for pleural or pericardial effusions, atrial thrombi, and right and left ventricular hypertrophy. The heart was lightly blotted and weight, and individual cardiac chambers were quickly dissected, and chamber weight recorded. Left ventricular tissue samples were rapidly frozen and stored in liquid nitrogen for later mRNA analysis. Subsequently, total RNA was isolated from all left ventricular samples and subjected to individual Affymetrix (230 2.0) array analysis (performed at the Genomics Laboratory of Boston University School of Medicine, Boston Mass.). Six individual animals were included in each experimental group. Table 1 (below) summarizes body weight, cardiac chamber weight, and ratios with and without treatment. Referring to Table 1, four groups of six SHR/group were examined: non-treated SHR with heart failure (SHR-F), age matched controls without heart failure (SHR-NF), and SHR with heart failure treated with the angiotensin converting enzyme inhibitor captopril (2 g/L in drinking water) (SHR-F+C) or captopril combined with the histone deacetylase inhibitor phenylbutyrate (6 g/L in the drinking water) for 30 days (SHR-F+CP). […] It was observed that SHR rats with heart failure had enlarged hearts and increased cardiac chamber weights relative to non-failing SHR group and the captopril treated SHR groups. In contrast, the rats treated with phenylbutyrate and captopril had far smaller cardiac chamber weights. There were no significant differences in body weight among the experimental groups. Indices of cardiac hypertrophy (i.e. LV/body weight ratio and RV/body weight ratios) were reduced with phenylbutyrate treatment. Cardiac chamber weight to tibia length data confirmed these findings.

SHR with heart failure [2] = assay: Quantitative histological examination of myocardial fibrosis; conditions: Table 3, 30 days treatment, mean ± SD
Description: We studied isolated papillary muscle function in the spontaneously hypertensive rat (SHR) which develops heart failure (HF) between 18-24 month of age. Four groups of SHR each consisting of six animals were examined: non-treated SHR with HF (SHR-F), age matched controls without HF (SHR-NF), and SHR with HF that were treated with the ACE inhibitor captopril (2 g/L in drinking water) (SHR-F+C) or captopril combined with the histone deacetylase inhibitor phenylbutyrate (6 g/L in drinking water) for 30 days (SHR-F+CP). […] Following treatment, hearts were isolated and contractile function of LV papillary muscles studied. LV weight and histology were assessed. RNA was isolated from 24 LV samples and subjected to individual Affymetrix (230 2.0) array analysis. Table 3 (below) summarizes the physiological, histological and gene expression findings from this study. […] SHR-F; see FIGS. 7A-7B).

SHR with heart failure [3] = assay: Serial echocardiographic measurement of LV ejection fraction in SHR; conditions: echocardiography, SHR-F following 30 days of treatment, n=6 per group
From the text: FIGS. 1A-1B illustrate serial echocardiographic measurements in SHR. LV ejection fraction (FIG. 1A) and end-systolic and end-diastolic LV volume (FIG. 1B) of male SHR during the transition to heart failure (12, 17, and 19 months of age). EF, LV ejection fraction (%); ESV, end-systolic volume (ml); EDV, end-diastolic volume (ml). LV function remains compensated until approximately 17 months, and then rapidly declines; mean age at onset of heart failure 19±1 months. FIGS. 2A-2B represent serial echocardiographic measurements (n=6 animals per group) of LV ejection fraction (LVEF) from individual SHR obtained before the onset of heart failure (Baseline), at the time of heart failure (HF) and following 30 days of treatment (Rx) with either captopril (CAPT—FIG. 2A) or combined captopril and phenylbutyrate treatment (CAPT+PB—FIG. 2B). Note marked reduction in LVEF with HF. […] FIG. 3 illustrates LV ejection fraction (LVEF) in non-failing SHR (SHR-NF), SHR with HF (SHR-F) and SHR-F following 30 days of captopril (CAPT) or combined phenylbutyrate and captopril treatment (CAPT+PB). […] Data are mean±SD (n=6 per group).

[4] = test system: left ventricular tissue from SHR with heart failure; assay: Affymetrix (230 2.0) array mRNA analysis of left ventricular tissue from treated SHR with heart failure
From the text: Adult male spontaneously hypertensive rats (SHR) rats were purchased as retired breeders from Taconic Inc and boarded in the animal facility at the Boston VA Healthcare system until the time of study (18 to 24 months of age). Each rat was caged alone and allowed free access to chow and water. Animals were monitored several times per week for evidence of tachypnea and labored respiration; when these clinical findings were clearly in evidence, animals were either killed and studied or treated with captopril and/or phenylbutyrate. Groups of animals were treated by adding the angiotensin converting enzyme inhibitor captopril to the drinking water (2 g/L to drinking water) and/or phenylbutyrate to the drinking water (6 g/L to the drinking water; sodium 4-phenylbutyrate (Triple Crown America, Inc.)) when clinical evidence of impaired cardiac function was detected. Treatment was continued for 30 days, the animals closely monitored and then studied. A control group of age-matched, untreated SHR rats was used for comparison. At autopsy, animals were examined for pleural or pericardial effusions, atrial thrombi, and right and left ventricular hypertrophy. The heart was lightly blotted and weight, and individual cardiac chambers were quickly dissected, and chamber weight recorded. Left ventricular tissue samples were rapidly frozen and stored in liquid nitrogen for later mRNA analysis. Subsequently, total RNA was isolated from all left ventricular samples and subjected to individual Affymetrix (230 2.0) array analysis (performed at the Genomics Laboratory of Boston University School of Medicine, Boston Mass.). Six individual animals were included in each experimental group. […] FIGS. 7A-7B provide a visual summary of the quantitative changes in transcripts observed with heart failure (SHR-F) compared to non-failing gene expression (SHR-F vs. SHR-NF) and those effects of treatment (SHR-F+C and SHR-F+CP) relative to un-treated SHR with heart failure. […] FIGS. 8A-8B provide a summary of the number of identified transcripts whose expression was reversed following treatment relative to un-treated SHR with failure. In contrast, phenylbutyrate when combined with captopril treatment reversed expression of more than 47% of heart failure-induced changes in gene expression (p<0.01). […] Analysis of pooled mRNA samples of right ventricular tissue indicate relatively few genes were differentially expressed between LV and RV tissue either with failure or treatment (data not shown). LV and RV are similarly affected by heart failure and amenable to therapeutic treatment effects. Taken together, these findings are consistent with the concept that phenylbutyrate acts as a wide scale inhibitor of transcription to reverse aspects of adverse remodeling and dysfunction associated with heart failure. […] We studied isolated papillary muscle function in the spontaneously hypertensive rat (SHR) which develops heart failure (HF) between 18-24 month of age. Four groups of SHR each consisting of six animals were examined: non-treated SHR with HF (SHR-F), age matched controls without HF (SHR-NF), and SHR with HF that were treated with the ACE inhibitor captopril (2 g/L in drinking water) (SHR-F+C) or captopril combined with the histone deacetylase inhibitor phenylbutyrate (6 g/L in drinking water) for 30 days (SHR-F+CP). […] Following treatment, hearts were isolated and contractile function of LV papillary muscles studied. LV weight and histology were assessed. RNA was isolated from 24 LV samples and subjected to individual Affymetrix (230 2.0) array analysis. Table 3 (below) summarizes the physiological, histological and gene expression findings from this study. […] SHR-F; see FIGS. 7A-7B).

[5] = test system: left ventricular papillary muscles from SHR with heart failure; assay: Mechanical function of isolated left ventricular papillary muscles from treated SHR with heart failure
Description: At the time of sacrifice, left ventricular papillary muscles were dissected free and mounted in an isolated muscle bath containing oxygenated physiologic solution for assessment of mechanical function. Muscle mechanics were measured under computer control of force or length of the preparation. Force and length data were sampled at a rate of 1 kHz and stored on disk for later analysis.
Treatment was continued for 30 days and then the animals studied.
We studied isolated papillary muscle function in the spontaneously hypertensive rat (SHR) which develops heart failure (HF) between 18-24 month of age. […] Following treatment, hearts were isolated and contractile function of LV papillary muscles studied. LV weight and histology were assessed. RNA was isolated from 24 LV samples and subjected to individual Affymetrix (230 2.0) array analysis.

[6] = Table 1, SHR with heart failure, 30 days treatment, mean ± SD, n=6
[7] = Table 3, LV samples, p < 0.01 vs. SHR-F
[8] = of 1431 genes different between SHR-F and SHR-NF, p<0.01 vs. SHR-F
[9] = Table 2, LV papillary muscle after 30 days treatment, mean ± SD
[10] = Table 3, LV papillary muscle after 30 days treatment, mean ± SD

C[C@H](CS)C(=O)N1CCC[C@H]1C(=O)O [captopril]
LV/BW ratio, index of LV hypertrophy, result in words ([1]; FIG. 4A, SHR-F following 30 days of treatment): no significant reduction
RV/BW ratio, index of RV hypertrophy, result in words ([1]; FIG. 4B, SHR-F following 30 days of treatment): decreased with treatment
LV/body wt. (left ventricular to body weight ratio) [1, 6]: 3.3 ± 0.3^+ ratio
RV/body wt. (right ventricular to body weight ratio) [1, 6]: 0.86 ± 0.20^+ ratio
LV/Body Weight (ratio) ([1]; Table 3, SHR with heart failure, 30 days treatment, mean ± SD): 3.3 ± 0.4 ratio
Fibrosis (%) (SHR with heart failure [2]): 22.8 ± 3.1 %
LV ejection fraction (LVEF), result in words (SHR with heart failure [3]): minimal improvement; also recorded: no significant change
Gene Expression (number), down-regulated (↓) vs. SHR-F [4, 7]: 42
Gene Expression (number), up-regulated (↑) vs. SHR-F [4, 7]: 99
number of identified genes down-regulated by treatment (overexpressed/induced with heart failure) ([4]; identified transcripts): 12
number of identified genes up-regulated by treatment (repressed with heart failure) ([4]; identified transcripts): 15
number of identified genes whose expression was reversed by treatment ([4]; identified transcripts, relative to un-treated SHR with failure): 27
number of genes whose change in expression was significantly reversed [4, 8]: 141
percentage of genes whose change in expression was significantly reversed [4, 8]: 9.8%
transcripts significantly modified with treatment ([4]; of heart failure-altered transcripts, p<0.01): < 2%
quick release force-velocity (F-V) relationships from LV papillary muscles, result in words ([5]; FIG. 6A): not significantly increased
active tension (AT) of LV papillary muscles, result in words ([5]; FIG. 6B): did not improve
contractile function and passive muscle stiffness, result in words ([5]; SHR with heart failure, 30 days treatment): did not restore contractile function or reduce passive muscle stiffness
+dT/dt (rate of tension development) [5, 9]: 28.4 ± 8.0 g/mm^2/s
AT (active tension) [5, 9]: 2.7 ± 0.4 g/mm^2
Kwm (whole muscle stiffness) [5, 9]: 73.9 ± 4.2
V1.0 (shortening velocity) [5, 9]: 0.9 ± 0.2 muscle length/s
AT (active tension) [5, 10]: 2.7 ± 0.4 g/mm^2
V0.1 (shortening velocity) [5, 10]: 0.9 ± 0.2 muscle lengths/s
